# Test results: patent US20250213533A1 (GH RESEARCH IRELAND LIMITED, priority 2022, published 2025)
# Test system: patients with postpartum depression (PPD)
# Assay: Clinical trial of inhaled 5-MeO-DMT (IDR) in postpartum depression; one patient so far, 6 mg then 12 mg
# Details: 1 patient
# Method: The single-arm, open-label clinical trial will involve 15 adult female patients with clinically diagnosed postpartum depression (PPD).
# The second dose (12 mg) will only be administered if: • a. […] The 6 mg dose was safe and well-tolerated according to the investigator, • c. Any psychoactive effects (PsE) of the prior dose have subsided, and • d. Pre-dose vital parameters and forced expiratory volume in one second (FEV1) are in normal range, or if outside of the normal range, are not clinically significant according to the investigator. • 3. Similarly, a third dose (18 mg) will only be administered if: • a. […] The 12 mg dose was safe and well-tolerated according to the investigator, and • c. Any PsE of the prior dose have subsided, and • d. Pre-dose vital parameters and forced expiratory volume in one second (FEV1) are in normal range, or if outside of the normal range, are not clinically significant according to the investigator.
# The patients will be assessed for a peak psychedelic experience (based on a patient-scored visual analogue scale, the PE scale), sedation, and other endpoints after dosing. Follow-up visits are planned for Day 1, and Day 7 after the dosing day.
# The following criteria must be met by all patients considered for clinical trial participation: • 1. Is female and in the age range between 18 and 45 years (inclusive) at screening. • 2. Has a body mass index (BMI) in the range of 18.5 and 35 kg/m^2 (inclusive) at screening. • 3. Meets the trial criteria for PPD as assessed by a trial psychiatrist or registered psychologist: • a. Diagnosis of Major Depressive Disorder without psychotic features, confirmed by the Mini-International Neuropsychiatric Interview (MINI), with peri-partum onset that began no earlier than gestation and no later than the first 4 weeks postpartum. • b. Has a Montgomery-Åsberg Depression Rating Scale (MADRS) total score of equal to or greater than 28 at screening and pre-dose on Day 0. • 6. […] Patients must have a negative pregnancy test at screening and on the pre-test day (Day −1). • 5. Is willing to delay start of other antidepressant or anxiety medication until after the end of the trial at Day 7 and agrees to keep any psychotherapy unchanged during the trial.
# A potential patient who meets any of the following key exclusion criteria will be excluded from participation in this trial: • 1. Has, based on history, psychiatric assessment, and evaluation of the MINI, a current or prior diagnosis of bipolar disorder, a manic or hypomanic episode, a psychotic disorder, Major Depressive Disorder (MDD) or other mood disorder with psychotic features, obsessive compulsive disorder, post-traumatic stress disorder (PTSD), autism spectrum disorder, borderline personality disorder, schizophrenia, delusional disorder, paranoid personality disorder, schizoaffective disorder, clinically significant intellectual disability, or any other psychiatric comorbidity that renders the patient unsuitable for the trial according to the investigator's judgment. • 2. Has one or more first or second degree relatives with a current or previously diagnosed bipolar disorder, psychotic disorder or other mood disorder (including MDD) with psychotic features. • 3. Is in the judgement of a trial psychiatrist or registered psychologist, at significant risk for suicide based on history, psychiatric assessment, and evaluation of suicidal ideation and suicidal behaviour based on the Columbia-Suicide Severity Rating Scale (C-SSRS). • 4. Has taken anti-depressive medication within 14 days or 5 half-lives (whichever is longer) prior to dosing (exception: within the last 5 weeks in the case of fluoxetine). • 5.
smiles,measurement,setting,value
COc1ccc2[nH]cc(CCN(C)C)c2c1 [5-MeO-DMT],"ECG (3 hours), safety laboratory analyses (7 days), CADSS (3 hours, 1 day, 7 days)",,unremarkable
same,standard criteria for MADRS remission (total score equal or less than 10),,fulfilled
same,standard criteria for MADRS response (at least 50% improvement from baseline),,fulfilled
same,time to clinical response after administration,,≤ 2 h
same,tolerability of the inhalation procedure,,well tolerated with no inhalation-related adverse events
same,MADRS Apparent sadness improvement,2hr,5
same,MADRS Apparent sadness score,2hr,0
same,MADRS Concentration Difficulties improvement,2hr,0
same,MADRS Concentration Difficulties score,2hr,0
same,MADRS Inability to Feel improvement,2hr,3
same,MADRS Inability to Feel score,2hr,0
same,MADRS Inner Tension improvement,2hr,5
same,MADRS Inner Tension score,2hr,0
same,MADRS Lassitude improvement,2hr,3
same,MADRS Lassitude score,2hr,0
same,MADRS Pessimistic Thoughts improvement,2hr,4
same,MADRS Pessimistic Thoughts score,2hr,0
same,MADRS Reduced Sleep improvement,2hr,0
same,MADRS Reduced Sleep score,2hr,5
same,MADRS Reduced appetite improvement,2hr,0
same,MADRS Reduced appetite score,2hr,0
same,MADRS Reported sadness improvement,2hr,4
same,MADRS Reported sadness score,2hr,0
same,MADRS Suicidal Thoughts improvement,2hr,0
same,MADRS Suicidal Thoughts score,2hr,0
same,BIMF TOTAL score,Day 0,92
same,BIMF item 1 (I am a good mother) score,Day 0,6
same,BIMF item 2 (I feel rested) score,Day 0,0
same,BIMF item 3 (comfortable with the way I've chosen to feed my baby) score,Day 0,6
same,BIMF item 4 (My baby and I understand each other) score,Day 0,5
same,BIMF item 5 (able to relax and enjoy time with my baby) score,Day 0,5
same,BIMF item 6 (people I can trust to care for my baby when I need a break) score,Day 0,6
same,BIMF item 8 (getting enough adult interaction) score,Day 0,6
same,BIMF item 9 (getting enough encouragement from other people) score,Day 0,5
same,BIMF item 10 (trust my own feelings (instincts) in taking care of my baby) score,Day 0,5
same,BIMF item 11 (take a little time each week to do something for myself) score,Day 0,5
same,BIMF item 12 (taking good care of my baby's physical needs) score,Day 0,6
same,BIMF item 13 (taking good care of my physical needs) score,Day 0,4
same,BIMF item 14 (good decisions about my baby's health and well being) score,Day 0,6
same,BIMF item 15 (My baby and I are getting into a routine) score,Day 0,5
same,BIMF item 16 (I worry about how other people judge me (as a mother)) score,Day 0,3
same,BIMF item 17 (able to take care of my baby and my other responsibilities) score,Day 0,5
same,BIMF item 18 (Anxiety or worry often interferes with my mothering ability) score,Day 0,2
same,BIMF item 19 (getting better at taking care of my baby) score,Day 0,0
same,BIMF item 20 (satisfied with the job I am doing as a new mother) score,Day 0,6
same,"adverse events (cramping left abdominal pain, headache)",Day 0,"mild, short-lasting and resolved spontaneously"
same,BIMF functional domain Adjustment score,"Day 0, maximum possible 12",5
same,BIMF functional domain Infant Care score,"Day 0, maximum possible 12",12
same,BIMF functional domain Mother-Child Interaction score,"Day 0, maximum possible 18",15
same,BIMF functional domain Self Care score,"Day 0, maximum possible 18",9
same,BIMF functional domain Social Support score,"Day 0, maximum possible 18",17
same,BIMF functional domain Management score,"Day 0, maximum possible 36",28
same,BIMF functional domain Psychological Well-being score,"Day 0, maximum possible 60",44
same,BPRS Anxiety improvement,Day 1,6
same,BPRS Anxiety score,Day 1,1
same,BPRS Blunted affect improvement,Day 1,0
same,BPRS Blunted affect score,Day 1,1
same,BPRS Conceptual disorganization improvement,Day 1,0
same,BPRS Conceptual disorganization score,Day 1,1
same,BPRS Depressive Mood improvement,Day 1,5
same,BPRS Depressive Mood score,Day 1,1
same,BPRS Disorientation improvement,Day 1,0
same,BPRS Disorientation score,Day 1,1
same,BPRS Emotional withdrawal improvement,Day 1,4
same,BPRS Emotional withdrawal score,Day 1,1
same,BPRS Excitement improvement,Day 1,1
same,BPRS Excitement score,Day 1,1
same,BPRS Grandiosity improvement,Day 1,0
same,BPRS Grandiosity score,Day 1,1
same,BPRS Guilt feelings improvement,Day 1,5
same,BPRS Guilt feelings score,Day 1,1
same,BPRS Hallucinatory behaviour improvement,Day 1,0
same,BPRS Hallucinatory behaviour score,Day 1,1
same,BPRS Hostility improvement,Day 1,0
same,BPRS Hostility score,Day 1,1
same,BPRS Mannerisms and Posturing improvement,Day 1,0
same,BPRS Mannerisms and Posturing score,Day 1,1
same,BPRS Motor retardation improvement,Day 1,0
same,BPRS Motor retardation score,Day 1,1
same,BPRS Somatic Concern improvement,Day 1,5
same,BPRS Somatic Concern score,Day 1,1
same,BPRS Suspiciousness improvement,Day 1,0
same,BPRS Suspiciousness score,Day 1,1
same,BPRS Tension score,Day 1,1
same,BPRS Uncooperativeness improvement,Day 1,0
same,BPRS Uncooperativeness score,Day 1,1
same,BPRS Unusual Thought Content improvement,Day 1,0
same,BPRS Unusual Thought Content score,Day 1,1
same,MADRS Apparent sadness improvement,Day 1,5
same,MADRS Apparent sadness score,Day 1,0
same,MADRS Concentration Difficulties improvement,Day 1,0
same,MADRS Concentration Difficulties score,Day 1,0
same,MADRS Inability to Feel improvement,Day 1,3
same,MADRS Inability to Feel score,Day 1,0
same,MADRS Inner Tension improvement,Day 1,5
same,MADRS Inner Tension score,Day 1,0
same,MADRS Lassitude improvement,Day 1,3
same,MADRS Lassitude score,Day 1,0
same,MADRS Pessimistic Thoughts improvement,Day 1,4
same,MADRS Pessimistic Thoughts score,Day 1,0
same,MADRS Reduced Sleep improvement,Day 1,5
same,MADRS Reduced Sleep score,Day 1,0
same,MADRS Reduced appetite improvement,Day 1,0
same,MADRS Reduced appetite score,Day 1,0
same,MADRS Reported sadness improvement,Day 1,4
same,MADRS Reported sadness score,Day 1,0
same,MADRS Suicidal Thoughts improvement,Day 1,0
same,MADRS Suicidal Thoughts score,Day 1,0
same,BIMF item 1 (I am a good mother) score,Day 7,6
same,BIMF item 2 (I feel rested) score,Day 7,2
same,BIMF item 3 (comfortable with the way I've chosen to feed my baby) score,Day 7,6
same,BIMF item 4 (My baby and I understand each other) score,Day 7,5
same,BIMF item 5 (able to relax and enjoy time with my baby) score,Day 7,6
same,BIMF item 6 (people I can trust to care for my baby when I need a break) score,Day 7,6
same,BIMF item 8 (getting enough adult interaction) score,Day 7,6
same,BIMF item 9 (getting enough encouragement from other people) score,Day 7,6
same,BIMF item 10 (trust my own feelings (instincts) in taking care of my baby) score,Day 7,6
